Source: ChEMBL document CHEMBL1133752, “Synthesis and antiviral evaluation of trisubstituted indole N-nucleosides as analogues of 2,5,6-trichloro-1-(beta-D-ribofuranosyl)benzimidazole (TCRB)” (J Med Chem, 2000)

Experiments:
[1] = ELISA assay was performed using BSC-1 cells to determine activity against HSV-1; type: functional, cell-based, Cercopithecidae
HFF [2] = assay: Visual cytotoxicity was scored on HFF cells at time of HCMV plaque enumeration; type: functional, cell-based; settings: Homo sapiens
HFF [3] = assay: Antiviral activity against HCMV was determined by plaque reduction assay using HFF cells; type: functional, cell-based; settings: Homo sapiens
[4] = Inhibition of KB cell growth was determined.; type: functional, cell-based; settings: Homo sapiens
HFF [5] = assay: Antiviral activity against HCMV was determined by yield reduction assay using HFF cells; type: functional; settings: Homo sapiens

SMILES	IC50 [1] [µM]	IC50 (HFF [2]) [µM]	IC50 (HFF [3]) [µM]	IC50 [4] [µM]	IC90 (HFF [5]) [µM]
Clc1cc2cc(Br)[nH]c2cc1Cl	70	32	14	70	–
OC[C@H]1O[C@@H](n2c(Cl)nc3cc(Cl)c(Cl)cc32)[C@H](O)[C@@H]1O	102	–	–	210	1.4
OC[C@H]1OC(n2c(Cl)cc3cc(Cl)c(Cl)cc32)[C@H](O)[C@@H]1O (some centres not stated)	> 100	> 100	42	> 100	50
OC[C@H]1OC(n2c(Br)cc3cc(Cl)c(Cl)cc32)[C@H](O)[C@@H]1O (some centres not stated)	> 100	100	18	> 100	42
OC[C@H]1O[C@@H](n2c(SCc3ccccc3)cc3cc(Cl)c(Cl)cc32)CC1O (some centres not stated)	40	32	32	60	–
O=C(O)P(=O)(O)O [FOSCARNET]	–	> 100	39	–	–
Nc1nc2c(ncn2COC(CO)CO)c(=O)[nH]1 [GANCICLOVIR]	3.5	> 100	–	> 100	1.6
